Reference: patent US6410572B1 (priority 2000, dated 2002)

Columns and labels:
[1] = tested on: Botrytis cinerea; experiment: Activity against Botrytis cinerea on bell peppers (fruit disks, protective spray); format: in vivo; settings: green bell pepper disks, 4 days at 18° C.
Method: The active ingredients, separately or together, are formulated as a 10% emulsion in a mixture of 63% by weight of cyclohexanone and 27% by weight of emulsifier, and diluted with water to the desired concentration.
Evaluation is carried out by determining the infected leaf areas in percent. These percentages are converted into efficacies. The efficacy (W) is calculated as follows using Abbot's formula: […]
α corresponds to the fungal infection of the treated plants in % and
β corresponds to the fungal infection of the untreated (control) plants in %
An efficacy of 0 means that the infection level of the treated plants corresponds to that of the untreated control plants; an efficacy of 100 means that the treated plants were not infected.
The expected efficacies of the mixtures of the active ingredients were determined using Colby's formula [R. S. Colby, Weeds 15, 20-22 (1967)] and compared with the observed efficacies.
Colby's formula: E=x+y−x·y/100
Disks of green bell peppers were sprayed to runoff point with an aqueous preparation of active ingredient which had been prepared from a stock solution comprising 10% of active ingredient, 63% of cyclohexanone and 27% of emulsifier. 2 hours after the spray coating had dried on, the fruit disks were inoculated with a spore suspension of Botrytis cinerea containing 1.7×10^6 spores per ml of a 2% strength Biomalz solution. The inoculated fruit disks were subsequently incubated in humid chambers at 18° C. for 4 days. The Botrytis infection on the diseased fruit disks was then evaluated visually.

[2] = tested on: Phytophthora infestans; format: in vivo; settings: 0.8 ppm active ingredient in the spray liquor; tomato leaves; after 6 days at 16-18° C.
[3] = 12.5 ppm active ingredient in the spray liquor
[4] = 50 ppm active ingredient in the spray liquor

| Structure (SMILES) | Efficacy in % of the untreated control [1, 3] | Efficacy in % of the untreated control [2] | Efficacy in % of the untreated control [1, 4] |
| --- | --- | --- | --- |
| O=C(Nc1ccccc1-c1ccc(F)cc1)c1cccnc1Cl [Compound I.1] | 20% | 0% | – |
| N#Cc1c(Cl)c(Cl)c(Cl)c(C#N)c1Cl [Compound II, Tetrachloroisophthalonitrile, reference compound] | 0% | 0% | 0% |
| O=C(Nc1ccccc1-c1ccc(Cl)cc1)c1cccnc1Cl [Compound I.2] | – | 0% | 85% |
